Results published in PubChem BioAssay (NCI).
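Briefly, cells in 96-well plates were exposed to five compound concentrations for 48 h, and endpoints were estimated by linear interpolation. At the TGI there is no net growth.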

Tests used:
Assay in all cases: NCI anticancer screen, dose series, 48 h
[1] = system: HCC-2998 colon
[2] = system: MDA-MB-435
[3] = system: ACHN renal
[4] = system: LOX IMVI melanoma
[5] = system: HOP-62 NSCLC
[6] = system: SW-620 colon
[7] = system: RPMI-8226 leukemia
[8] = system: OVCAR-4 ovarian
[9] = system: MOLT-4 leukemia
[10] = system: RXF 393 renal
[11] = system: HL-60(TB) leukemia
[12] = system: TK-10 renal
[13] = system: SK-MEL-2 melanoma
[14] = system: OVCAR-3 ovarian
[15] = system: DU-145 prostate
[16] = system: IGROV1 ovarian
[17] = system: SK-OV-3 ovarian
[18] = system: UO-31 renal
[19] = system: M14 melanoma
[20] = system: HCT-15 colon
[21] = system: SK-MEL-5 melanoma
[22] = system: COLO 205 colon
[23] = system: SF-268 CNS
[24] = system: SNB-19 CNS
[25] = system: A498 renal
[26] = system: SN12C renal
[27] = system: UACC-62 melanoma
[28] = system: HS 578T breast
[29] = system: SNB-75 CNS
[30] = system: UACC-257 melanoma
[31] = system: SF-539 CNS
[32] = system: NCI-H226 lung
[33] = system: MALME-3M melanoma
[34] = system: SK-MEL-28 melanoma
[35] = system: NCI-H522 lung
[36] = system: CAKI-1 renal
[37] = system: MDA-N
[38] = system: NCI-H23 lung
[39] = system: 786-0 renal
[40] = system: OVCAR-8 ovarian
[41] = system: NCI/ADR-RES ovarian
[42] = system: KM12 colon
[43] = system: A549 NSCLC
[44] = system: MDA-MB-231 breast
[45] = system: MCF7 breast
[46] = system: EKVX NSCLC
[47] = system: OVCAR-5 ovarian
[48] = system: HT29 colon
[49] = system: HCT-116 colon
[50] = system: NCI-H460 lung
[51] = system: K-562 leukemia
[52] = system: T-47D breast
[53] = system: SF-295 CNS
[54] = system: U251 CNS
[55] = system: PC-3 prostate
[56] = system: CCRF-CEM leukemia
[57] = system: HOP-92 NSCLC
[58] = system: SR leukemia

Work on OC(c1nc2ccccc2s1)(C(F)(F)F)C(F)(F)F yielded a TGI [1] of over 100 µM, a TGI [2] of over 100 µM and a TGI [3] of over 100 µM. For the same compound, the TGI [4] was over 100 µM, the TGI [5] was over 100 µM and the TGI [6] was over 100 µM. It also gave a TGI [7] of over 100 µM, a TGI [8] of over 100 µM and a TGI [9] of over 100 µM. The TGI [10] was over 100 µM, the TGI [11] was over 100 µM and the TGI [12] was over 100 µM. For the same compound, the TGI [13] was over 100 µM, the TGI [14] was over 100 µM and the TGI [15] was over 100 µM. The TGI [16] was over 100 µM, the TGI [17] was over 100 µM and the TGI [18] was over 100 µM. It also gave a TGI [19] of over 100 µM, a TGI [20] of over 100 µM and a TGI [21] of over 100 µM. The TGI [22] was over 100 µM, the TGI [23] was over 100 µM and the TGI [24] was over 100 µM. The TGI [25] was over 100 µM, the TGI [26] was over 100 µM and the TGI [27] was over 100 µM. The TGI [28] was over 100 µM, the TGI [29] was over 100 µM and the TGI [30] was over 100 µM. It also gave a TGI [31] of over 100 µM, a TGI [32] of over 100 µM and a TGI [33] of over 100 µM. It also gave a TGI [34] of over 100 µM, a TGI [35] of over 100 µM and a TGI [36] of over 100 µM. The TGI [37] was over 100 µM, the TGI [38] was over 100 µM and the TGI [39] was over 100 µM. It also gave a TGI [40] of over 100 µM, a TGI [41] of over 100 µM and a TGI [42] of over 100 µM. For the same compound, the TGI [43] was over 100 µM, the TGI [44] was over 100 µM and the TGI [45] was over 100 µM. For the same compound, the TGI [46] was over 100 µM, the TGI [47] was over 100 µM and the TGI [48] was over 100 µM. The TGI [49] was over 100 µM, the TGI [50] was over 100 µM and the TGI [51] was over 100 µM. For the same compound, the TGI [52] was over 100 µM, the TGI [53] was over 100 µM and the TGI [54] was over 100 µM. It also gave a TGI [55] of over 100 µM and a TGI [56] of over 100 µM.

In the case of CC1=NN(c2cccc(Cl)c2)C2(SCC(=O)N2c2nc3ccccc3s2)/C1=C\c1ccc(Cl)cc1 (configuration not stated), the TGI [1] is reported as 27.5 µM, the TGI [2] is reported as 43.1 µM and the TGI [3] is reported as 46.4 µM. The TGI [4] was 45.2 µM, the TGI [5] was 35.3 µM and the TGI [6] was 27.9 µM. For the same compound, the TGI [57] was 28.3 µM, the TGI [7] was 39.5 µM and the TGI [8] was 55.1 µM. For the same compound, the TGI [9] was 20.8 µM, the TGI [10] was 38.4 µM and the TGI [11] was 24.3 µM. It also gave a TGI [12] of over 100 µM, a TGI [13] of 35.7 µM and a TGI [14] of 37.2 µM. For the same compound, the TGI [15] was 39.2 µM, the TGI [16] was 37.8 µM and the TGI [17] was 47.3 µM. The TGI [18] was 29.5 µM, the TGI [19] was 43.5 µM and the TGI [20] was 38.1 µM. For the same compound, the TGI [21] was 30.8 µM, the TGI [23] was 46.2 µM and the TGI [58] was 15.9 µM. It also gave a TGI [25] of 40.2 µM, a TGI [28] of 73.6 µM and a TGI [30] of 63.9 µM. The TGI [31] was 89.6 µM, the TGI [32] was 75.1 µM and the TGI [34] was 72.4 µM. For the same compound, the TGI [35] was 39.2 µM, the TGI [36] was 39.2 µM and the TGI [37] was 69.8 µM. It also gave a TGI [38] of 41.5 µM, a TGI [39] of 48.1 µM and a TGI [40] of 40.7 µM. It also gave a TGI [41] of over 100 µM, a TGI [42] of 34.8 µM and a TGI [44] of 72 µM. It also gave a TGI [45] of 87 µM, a TGI [46] of over 100 µM and a TGI [47] of 55.4 µM. For the same compound, the TGI [48] was 42.7 µM, the TGI [49] was 31.3 µM and the TGI [50] was 33.3 µM. It also gave a TGI [51] of 41.3 µM, a TGI [52] of over 100 µM and a TGI [53] of 42.7 µM. For the same compound, the TGI [54] was 28.2 µM, the TGI [55] was 31.1 µM and the TGI [56] was 3.31 µM.
